What was measured:
[1] = target: T1, glycerol kinase (GK, His-GK) (Haloferax volcanii, UniProt D4GYI5); assay: coupled enzyme kinetics of purified His-GK (Hill fit, n = […]); further DSF stabilization together with glycerol ([…]°C); type: biochemical
T1 construct: gene glpK; N-terminal His-tagged GK (His-GK)
T1 sequence (D4GYI5 1-510): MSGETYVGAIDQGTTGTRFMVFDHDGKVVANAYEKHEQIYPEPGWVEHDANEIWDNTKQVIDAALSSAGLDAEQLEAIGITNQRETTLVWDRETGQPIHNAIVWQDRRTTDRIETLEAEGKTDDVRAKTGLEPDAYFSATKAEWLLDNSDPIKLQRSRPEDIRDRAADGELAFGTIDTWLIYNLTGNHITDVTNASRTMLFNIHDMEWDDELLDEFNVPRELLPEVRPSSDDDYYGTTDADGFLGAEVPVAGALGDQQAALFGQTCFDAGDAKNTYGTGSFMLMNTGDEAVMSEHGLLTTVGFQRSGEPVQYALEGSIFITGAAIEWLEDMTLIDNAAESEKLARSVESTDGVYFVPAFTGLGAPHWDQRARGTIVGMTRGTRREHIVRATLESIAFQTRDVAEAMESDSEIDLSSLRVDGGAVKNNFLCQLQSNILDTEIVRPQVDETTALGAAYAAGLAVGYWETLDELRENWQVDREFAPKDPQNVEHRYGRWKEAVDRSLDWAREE

[2] = target: T1, glycerol kinase (GK, His-GK); assay: coupled enzyme kinetics of purified His-GK (Hill fit, n = […]); supported by DSF shift ([…] to […]°C) and SEC dimer-to-tetramer shift; type: biochemical
[3] = target: the molecule itself; assay: SEC; Superdex 200 Increase 10/300 GL, 50 mM HEPES pH 7.5, 2 M NaCl, 1 mM DTT, without glycerol; 0.3 mL/min; Ni2+-NTA-purified His-GK dialysed against the same buffer; mass from Kav against standards
[4] = target: the molecule itself; assay: SEC; Superdex 200 Increase 10/300 GL, 50 mM HEPES pH 7.5, 2 M NaCl, 1 mM DTT, with 10% (vol/vol) glycerol; 0.3 mL/min; Ni2+-NTA-purified His-GK dialysed against the same buffer; the isolated tetramer was also kept overnight at 4°C and run again; mass from Kav against standards

Nc1ncnc2c1ncn2[C@@H]1O[C@H](COP(=O)(O)OP(=O)(O)OP(=O)(O)O)[C@@H](O)[C@H]1O [ATP]
Kd [1]: 1600 ± 80 µM

OCC(O)CO [glycerol]
Kd [2]: 1440 ± 160 µM

B1: Haloferax volcanii glycerol kinase fused to an N-terminal polyhistidine tag (His-GK) (enzyme, UniProt D4GYI5 1-510, looked up)
chain: MSGETYVGAIDQGTTGTRFMVFDHDGKVVANAYEKHEQIYPEPGWVEHDANEIWDNTKQVIDAALSSAGLDAEQLEAIGITNQRETTLVWDRETGQPIHNAIVWQDRRTTDRIETLEAEGKTDDVRAKTGLEPDAYFSATKAEWLLDNSDPIKLQRSRPEDIRDRAADGELAFGTIDTWLIYNLTGNHITDVTNASRTMLFNIHDMEWDDELLDEFNVPRELLPEVRPSSDDDYYGTTDADGFLGAEVPVAGALGDQQAALFGQTCFDAGDAKNTYGTGSFMLMNTGDEAVMSEHGLLTTVGFQRSGEPVQYALEGSIFITGAAIEWLEDMTLIDNAAESEKLARSVESTDGVYFVPAFTGLGAPHWDQRARGTIVGMTRGTRREHIVRATLESIAFQTRDVAEAMESDSEIDLSSLRVDGGAVKNNFLCQLQSNILDTEIVRPQVDETTALGAAYAAGLAVGYWETLDELRENWQVDREFAPKDPQNVEHRYGRWKEAVDRSLDWAREE
notes: calculated His-GK monomer 56.7 kDa; Found by SEC as a homodimer (no glycerol) or as a homodimer plus a homotetramer (10% glycerol); also called GlpK; H. volcanii GK; source: H. volcanii H1207-pJAM4351 grown in GlyMM, purified (Ni2+-NTA resin, then SEC); not shown: His6, N-terminal, kept
stoichiometry N [3]: 2
stoichiometry N [4]: 4

Reference: publication PMC12366361, “Biochemical properties of glycerol kinase from the hypersaline-adapted archaeon Haloferax volcanii” (Applied and Environmental Microbiology, 2025)
